Experimental data published in PubChem BioAssay (NCI).
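These data come from cells grown in 96-well plates and exposed to compound for 48 hours at five concentrations. Abbreviation: GI50, concentration required for 50% inhibition of growth. At the TGI there is no net growth.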

Legend:
Experiment in all cases: inhibition of tumour cell growth, NCI panel, 48 h
[1] = tested on: SF-268 CNS
[2] = tested on: NCI-H226 lung
[3] = tested on: K-562 leukemia
[4] = tested on: CAKI-1 renal
[5] = tested on: SF-539 CNS
[6] = tested on: EKVX NSCLC
[7] = tested on: HCC-2998 colon
[8] = tested on: SNB-75 CNS
[9] = tested on: TK-10 renal
[10] = tested on: HS 578T breast

Row | SMILES | TGI [1] | TGI [2] | TGI [3] | TGI [4] | TGI [5] | TGI [6] | TGI [7] | TGI [8] | TGI [9] | GI50 [1] | GI50 [2] | GI50 [4] | GI50 [5] | GI50 [6] | GI50 [9] | GI50 [7] | GI50 [8] | GI50 [3] | GI50 [10] | TGI [10]
1 | O=C(Cc1nc2ccccc2o1)C(=O)Nc1ccc(Cl)cc1Cl | > 100 µM | > 100 µM | > 100 µM | > 100 µM | > 100 µM | > 100 µM | > 100 µM | > 100 µM | – | – | – | – | – | – | – | – | – | – | – | –
2 | CC[As](CC)SCC1OC(OC(C)=O)C(OC(C)=O)C(OC(C)=O)C1OC(C)=O (centres undefined) | 25.8 µM | 28.9 µM | 14 µM | 10.4 µM | 27.4 µM | 37.2 µM | 31.7 µM | 52.7 µM | 30.4 µM | – | – | – | – | – | – | – | – | – | – | –
3 | Fc1ccc(N=C2C=CC(=Nc3ccc(F)cc3)c3ccccc32)cc1 | > 100 µM | > 100 µM | > 100 µM | – | > 100 µM | > 100 µM | > 100 µM | > 100 µM | > 100 µM | – | – | – | – | – | – | – | – | – | – | –
4 | COc1ccc([C@@H]2OC(=O)C3C2C(=O)O[C@H]3c2ccc(OC)cc2)cc1 (some centres undefined) | – | – | > 100 µM | > 100 µM | > 100 µM | > 100 µM | > 100 µM | > 100 µM | – | – | – | – | – | – | – | – | – | – | – | –
5 | CN(C)CCCCNc1ccc(NCCCCN(C)C)c2c1C(=O)c1c(O)ccc(O)c1C2=O | 22.1 µM | 28.1 µM | – | 21.6 µM | 24.6 µM | 3.82 µM | 2.93 µM | 25.3 µM | 26.4 µM | 10.4 µM | 14.9 µM | 8.15 µM | 10.9 µM | 1.81 µM | 13.3 µM | 1.58 µM | 12.8 µM | – | – | –
6 | COc1cc(C(=O)NN=C2c3ccccc3-c3ccccc32)cc(OC)c1OC | 27.7 µM | 73.9 µM | 26.2 µM | 7.92 µM | 5.32 µM | – | 57.8 µM | 21 µM | 32.6 µM | 4.57 µM | 14.8 µM | 2.14 µM | 2.1 µM | – | 7.86 µM | 10.5 µM | 2.86 µM | 0.829 µM | 3.5 µM | 26.3 µM
7 | N#CCCN(c1ccc(C=O)cc1)S(=O)(=O)c1ccccc1 | > 100 µM | > 100 µM | > 100 µM | > 100 µM | > 100 µM | > 100 µM | > 100 µM | > 100 µM | – | – | – | – | – | – | – | – | – | – | – | –
8 | COc1cc(N2CCC(N)CC2)ccc1Nc1ncc(Cl)c(-c2c[nH]c3ccccc23)n1 | 3.35 µM | 3.59 µM | 5.03 µM | 2.1 µM | 1.7 µM | – | 2.23 µM | 1.97 µM | 1.6 µM | 0.846 µM | 0.334 µM | 0.335 µM | 0.437 µM | – | 0.36 µM | 0.649 µM | 0.417 µM | 1.58 µM | 0.741 µM | 3.87 µM
9 | O=C(Nc1cccc(-n2cc(-c3ccncc3)c(-c3ccc(Cl)c(O)c3)n2)c1)Nc1ccc(Cl)c(Cl)c1 | 10.9 µM | > 32.5 µM | > 32.5 µM | 14.3 µM | 8.97 µM | – | 13.9 µM | 12.2 µM | > 32.5 µM | 1.49 µM | 1.51 µM | 1.11 µM | 1.34 µM | – | 1.91 µM | 2.89 µM | 1.09 µM | 1.41 µM | 0.785 µM | 3.15 µM
